These results are taken from ChEMBL document CHEMBL1141235, “Synthesis and preliminary evaluation of [3H]PSB-0413, a selective antagonist radioligand for platelet P2Y12 receptors” (Bioorg Med Chem Lett, 2005).

For the assay, the target named is P2Y purinoceptor 12 (Homo sapiens, UniProt Q9H244). In words: Binding affinity to P2Y12 receptor expressed in human platelets from 0.047 to 50 nM.
Sequence of P2Y purinoceptor 12 (Q9H244 whole entry): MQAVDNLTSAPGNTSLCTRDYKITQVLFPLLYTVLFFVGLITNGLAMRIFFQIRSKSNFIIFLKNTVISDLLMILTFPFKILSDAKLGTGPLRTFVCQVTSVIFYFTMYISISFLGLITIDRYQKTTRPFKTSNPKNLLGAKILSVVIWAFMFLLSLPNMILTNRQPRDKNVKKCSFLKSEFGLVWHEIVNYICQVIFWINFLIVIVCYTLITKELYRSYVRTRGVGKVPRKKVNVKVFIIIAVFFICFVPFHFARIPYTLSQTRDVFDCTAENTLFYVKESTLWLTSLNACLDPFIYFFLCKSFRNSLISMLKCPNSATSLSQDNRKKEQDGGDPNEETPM

In general, Kd refers to the constant that tells how readily two partners part at equilibrium. `[3H]C([3H])([3H])C([3H])([3H])CSc1nc(N)c2ncn([C@@H]3O[C@H](COP(=O)(O)OP(=O)(O)C(Cl)(Cl)P(=O)(O)O)[C@@H](O)[C@H]3O)c2n1` returned a Kd of 4.57 nM. That is a single-digit nanomolar value.
